Assay results: patent publication US8470849B2, “7-azaindole derivatives as selective 11-β-hydroxysteroid dehydrogenase type 1 inhibitors” (Merck Patent GmbH, priority 2007, dated 2013)
pIC50: −log10 of the molar value.

How the values were obtained:
Assay type in all cases: biochemical
[1] = molecular target: T1, mouse 11-beta HSD-1 (Mus musculus, UniProt P50172); test: 11beta-HSD1 enzyme assay, mice liver microsome fractions (HTRF cortisol); conditions: for pIC50: read-out: Inhibition of mouse 11-beta HSD-1 IC50
T1 construct: Mice and Rat liver microsome fractions were purchased from TEBU; tissue TEBU; host or cells: mouse liver microsome fractions
T1 sequence (P50172 whole entry): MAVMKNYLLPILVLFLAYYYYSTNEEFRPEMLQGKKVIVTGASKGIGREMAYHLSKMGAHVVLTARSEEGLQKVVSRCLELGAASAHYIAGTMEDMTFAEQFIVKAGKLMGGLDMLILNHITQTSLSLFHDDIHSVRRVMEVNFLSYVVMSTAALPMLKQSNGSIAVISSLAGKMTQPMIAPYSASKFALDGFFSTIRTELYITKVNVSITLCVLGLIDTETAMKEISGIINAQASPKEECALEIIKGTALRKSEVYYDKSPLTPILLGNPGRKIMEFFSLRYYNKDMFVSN
Method: (§1) Human recombinant 11 beta-hydroxysteroid dehydrogenase type 1 (11 beta-HSD1) and type 2 (11beta-HSD2) enzymes were expressed in E. Coli. Mice and Rat liver microsome fractions were purchased from TEBU.
(§2) Reactions were initiated by addition of 10 μl 11beta-HSD1 (3 μg) from E. Coli, either as microsome fractions from rat and mice liver (2,5 μg). Following mixing, the plates were shaken for 150 minutes at 37° C. The reactions were terminated with 10 μl Acid-18beta glycyrrhetinic stop solution. Determinations of cortisol levels in 11 beta-HSD1 preparations were monitored by HTRF (HTRF cortisol assay from C is bio international).

[2] = molecular target: T2, rat 11-beta HSD-1 (Rattus norvegicus, UniProt P16232); test: 11beta-HSD1 enzyme assay, rat liver microsome fractions (HTRF cortisol); conditions: for pIC50: read-out: Inhibition of rat 11-beta HSD-1 IC50
T2 construct: Mice and Rat liver microsome fractions were purchased from TEBU; tissue TEBU; host or cells: rat liver microsome fractions
T2 sequence (P16232 whole entry): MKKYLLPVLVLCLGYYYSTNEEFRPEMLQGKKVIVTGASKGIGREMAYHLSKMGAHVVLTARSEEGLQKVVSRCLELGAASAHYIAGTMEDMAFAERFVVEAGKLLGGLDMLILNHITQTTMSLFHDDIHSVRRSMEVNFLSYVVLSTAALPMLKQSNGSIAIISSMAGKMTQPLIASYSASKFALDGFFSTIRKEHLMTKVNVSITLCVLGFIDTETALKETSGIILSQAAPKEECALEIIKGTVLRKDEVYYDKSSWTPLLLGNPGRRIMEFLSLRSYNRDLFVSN
Method: as §1, §2

[3] = molecular target: T3, human 11-beta HSD-1 (Homo sapiens, UniProt P28845); test: 11beta-HSD1 enzyme assay, human recombinant enzyme (HTRF cortisol); conditions: for pIC50: human recombinant enzyme from E. Coli, cortisone/NADPH, 150 minutes at 37° C., read-out: Inhibition of human 11-beta HSD-1 IC50; for Selectivity Ratio human HSD2/HSD1: ratio of IC50 human HSD2 to human HSD1
T3 construct: made in house; host or cells: E. coli
T3 sequence (P28845 whole entry): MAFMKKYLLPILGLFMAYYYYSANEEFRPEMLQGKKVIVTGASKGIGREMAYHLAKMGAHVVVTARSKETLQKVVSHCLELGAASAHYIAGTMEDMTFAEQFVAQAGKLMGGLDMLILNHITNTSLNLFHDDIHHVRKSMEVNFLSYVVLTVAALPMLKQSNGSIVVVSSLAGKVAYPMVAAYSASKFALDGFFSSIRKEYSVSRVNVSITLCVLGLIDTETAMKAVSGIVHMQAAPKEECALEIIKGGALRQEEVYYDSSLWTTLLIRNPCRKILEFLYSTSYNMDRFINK
Method: as §1, §2

[4] = molecular target: T4, human 11-beta HSD-2 (Homo sapiens, UniProt P80365); test: 11beta-HSD2 enzyme assay, human recombinant enzyme; conditions: cortisol/NAD, read-out: Inhibition of human 11-beta HSD-2 IC50
T4 construct: made in house; host or cells: E. coli
T4 sequence (P80365 1-405): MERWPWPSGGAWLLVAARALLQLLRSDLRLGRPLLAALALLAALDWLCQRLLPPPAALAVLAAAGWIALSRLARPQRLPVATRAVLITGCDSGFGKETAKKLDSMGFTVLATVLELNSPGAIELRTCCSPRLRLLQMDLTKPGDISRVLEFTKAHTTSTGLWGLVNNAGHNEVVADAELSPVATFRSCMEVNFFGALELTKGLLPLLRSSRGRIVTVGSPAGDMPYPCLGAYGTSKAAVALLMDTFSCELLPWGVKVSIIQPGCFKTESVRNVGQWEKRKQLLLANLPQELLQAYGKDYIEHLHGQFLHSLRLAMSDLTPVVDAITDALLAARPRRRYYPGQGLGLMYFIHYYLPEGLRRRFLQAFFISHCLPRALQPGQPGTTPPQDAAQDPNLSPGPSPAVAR
Description: as §1

SMILES	pIC50 [1]	pIC50 [2]	pIC50 [3]	other results
O=C(C1CCCCC1)N1CCC(c2c[nH]c3ncccc23)C1 (stereo not shown) [Ex. 3, (Cycloxexyl)-[3-(1H-pyrrolo[2,3-b]pyridine-3-yl)-pyrrolidine-1-yl]-methanone]	6.02	6.29	6.27	–
CN(C)c1ccc(C(=O)N2CCC(c3c[nH]c4ncccc34)C2)cc1 (stereo not shown) [Ex. 7, (4-Dimethylaminophenyl)-[3-(1H-pyrrolo[2,3-b]pyridine-3-yl)-pyrrolidine-1-yl]-methanone]	6.77	7.37	–	pIC50 [4]: < 5.00
O=C(N1CCC(c2c[nH]c3ncccc23)C1)C1(c2ccccc2)CC1 (stereo not shown) [Ex. 8, (1-Phenyl-cyclopropyl)-[3-(1H-pyrrolo[2,3-b]pyridine-3-yl)-pyrrolidine-1-yl]-methanone]	–	7.32	7.30	Selectivity Ratio human HSD2/HSD1 [3]: >200
CC(C)(C(=O)N1CCC(c2c[nH]c3ncccc23)C1)c1ccc(Cl)cc1 (stereo not shown) [Ex. 9, 2-(4-Chlorophenyl)-2-methyl-1-[3-(1H-pyrrolo[2,3-b]pyridine-3-yl)-pyrrolidine-1-yl]-propan-1-one]	–	6.04	8.01	Selectivity Ratio human HSD2/HSD1 [3]: > 1000
CC(C)(C(=O)N1CCC(c2c[nH]c3ncccc23)CC1)N1CCN(c2ccc(C(F)(F)F)cn2)CC1 [Ex. 13, 2-Methyl-1-[4-(1H-pyrrolo[2,3-b]pyridin-3-yl)-piperidine-1-yl]-2-[4-(5-trifluoromethyl-pyridine-2-yl)-piperazine-1-yl]-propan-1-one]	–	–	5.94	–
CC(C)(COc1ccc(F)cc1)CC(=O)N1CCC(c2c[nH]c3ncccc23)CC1 [Ex. 14, 4-(4-Fluoro-phenoxy)-3,3-dimethyl-1-[4-(1H-pyrrolo[2,3-b]pyridine-3-yl)-piperidine-1-yl]-butan-1-one]	–	–	6.96	Inhibition of mouse 11-beta HSD-1, activity in % of Ctrl ([1]; at 1 μM): 86% of Ctrl; Inhibition of rat 11-beta HSD-1, activity in % of Ctrl ([2]; at 1 μM): 85% of Ctrl
CC(C)(COc1ccc(F)cc1)CC(=O)N1CCC(c2c[nH]c3ncccc23)C1 (stereo not shown) [Ex. 17, 4-(4-Fluoro-phenoxy)-3,3-dimethyl-1-[3-(1H-pyrrolo[2,3-b]pyridine-3-yl)-pyrrolidine-1-yl]-butan-1-one]	5.68	–	7.80	–
O=C(CS(=O)(=O)c1ccc(Cl)cc1)N1CCC(c2c[nH]c3ncccc23)C1 (stereo not shown) [Ex. 20, 2-(4-Chloro-benzenesulfonyl)-1-[3-(1H-pyrrolo[2,3-b]pyridine-3-yl)-pyrrolidine-1-yl]-ethanone]	–	–	7.54	–
